From US12157745B2, “Heterocyclic systems and pharmaceutical compositions thereof” (University of Sharjah, priority 2018, dated 2024)

What was measured:
Test in all cases: Full dose-response, survival of cancer cell line (SRB assay)
Assay type in all cases: cell-based
[1] = system: HCT116; conditions: Homo sapiens, HCT-116; colon cancer; 48 hours of drug treatment; average of three individual experiments
Description: (§1) Dulbecco's Modified Eagles Medium (DMEM), RPMI 1640 medium and propidium iodide (PI) were purchased from Sigma Aldrich (Darmstadt, Germany). For western blot, the antibodies; c-Myc, p^53, p^21, Bax, Bid, BclxL, GAPDH, caspase-3, caspase-9, p-ATM, p-ATR, p-Chk1, p-Chk2, p-P^53, and p-H2AX along with respective mouse/rabbit secondary antibodies were purchased from Cell Signaling Technology (Danvers, MA, USA). FITC Annexin V Apoptosis kit was purchased from BD Biosciences (New Jersey, USA). All other chemicals and solvents used were of standard analytical grade. The stock solutions of SIMR compounds were made in 100% DMSO and working solutions for treatments never exceeded >1% DMSO. The cell lines were gifted from Radiobiology and Experimental Radio Oncology lab, University Cancer Center, Hamburg University, Hamburg, Germany. F180 and HCT116 cells were cultured in DMEM media while MCF-7 and SKBR3 cells were cultured in RPMI along with 10% FBS and 5% CO2 in a humidified incubator at 37° C. The cells were grown on polystyrene T-75 (75 cm^2) culture flasks and all the experiments were performed at ˜70% cell confluency.
(§2) SRB assay was performed on DU-143 and MCF-7 cells in order to find out the sub-lethal dosage (IC50) of the synthesized compounds based on reported method with minor modifications. Briefly, 1×10^4 cells were seeded in a 96-well plate overnight and were treated with different concentrations of compounds and incubated further for 48 hours. The wells which were devoid of any treatment served as controls. After the treatment time, the plates were incubated with 50% trichloroacetic acid (TCA) at 4° C. for 1 hour. The cells were then washed, dried and exposed to 1% acetic acid for short period. Two hundred microliters of 10 mMtris base solution was then added with 10 min incubation after drying the plates and the OD was read at 492 nm by using a Multiskan™ GO (Thermo Scientific, USA) microplate Spectrophotometer.

[2] = system: SKBR3; conditions: Homo sapiens, SK-BR-3; breast cancer; 48 hours of drug treatment; average of three individual experiments
Description: as §1, §2

[3] = system: MCF7; conditions: Homo sapiens, breast cancer, 48 hours of drug treatment, average of three individual experiments
Description: as §1, §2

Structure (SMILES)	IC50 [1]	IC50 [2]	IC50 [3]
CC(=O)Nc1ccc(C2=CSC3=N[C@@H]4c5c(ccc6ccccc56)OC[C@@H]4C(C)(C)N23)cc1 [Compound 1m]	3.7 µM	6.4 µM	4.5 µM
COc1ccc(OC)c(C2=CSC3=N[C@@H]4c5c(ccc6ccccc56)OC[C@@H]4C(C)(C)N23)c1 [Compound 1n]	6.2 µM	10.1 µM	6.76 µM
CC1=C(c2ccccc2)N2C(=N[C@@H]3c4c(ccc5ccccc45)OC[C@@H]3C2(C)C)S1 [Compound 1q]	4.7 µM	9.4 µM	11.8 µM
CC1=C(c2ccc(Br)cc2)N2C(=N[C@@H]3c4c(ccc5ccccc45)OC[C@@H]3C2(C)C)S1 [Compound 1r]	7.2 µM	7.6 µM	8.14 µM
CC1=C(c2ccc(Cl)c(Cl)c2)N2C(=N[C@H]3c4cc5c6c(c4OC[C@@H]3C2(C)C)CCCN6CCC5)S1 [Compound 1x]	2.3 µM	1.4 µM	0.38 µM
COc1cccc2c1C(=O)c1c(O)c3c(c(O)c1C2=O)C[C@@](O)(C(=O)CO)C[C@@H]3O[C@H]1C[C@H](N)[C@H](O)[C@H](C)O1 [Doxorubicin, reference compound]	0.096 µM	0.25 µM	0.058 µM
